Legend:
Conditions in all cases: 72 h
HL-60 = test system: HL-60
How it was run: (§1)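 The IC50 was read from log-logistic dose–response fits. Fifteen myeloid leukaemia lines were exposed for 72 h at 37 °C with 5% CO2 to five tenfold doses from 1 to 10,000 nM in duplicate. ATP luminescence, normalised to vehicle and to a 10 µM positive control, was fitted with four parameters.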

ML-2 = test system: ML-2
How it was run: as §1

THP-1 = test system: THP-1
How it was run: as §1

SHI-1 = test system: SHI-1
How it was run: as §1

BV-173 = test system: BV-173
How it was run: as §1

KCL-22 = test system: KCL-22
How it was run: as §1

LAMA-84 = test system: LAMA-84
How it was run: as §1

HEL = test system: HEL
How it was run: as §1

KG-1 = test system: KG-1
How it was run: as §1

KU-812 = test system: KU-812
How it was run: as §1

Mono-Mac-6 = test system: Mono-Mac-6
How it was run: as §1

K-562 = test system: K-562
How it was run: as §1

NOMO-1 = test system: NOMO-1
How it was run: as §1

MOLM-13 = test system: MOLM-13
How it was run: as §1

Measured: IC50 (cell viability)

NC(=O)c1cccc(-c2cccc(OC(=O)NC3CCCCC3)c2)c1 [URB-597]
> 10 µM: all assays above

Nc1ccccc1C(=O)C[C@H](N)C(=O)O [L-Kynurenine]
> 10 µM: all assays above

CCCCCCCCCCCC(=O)c1c(O)c(C(=O)CCCCCCCCCCC)c(O)c(C2CC(c3ccc(O)cc3)Oc3cc(O)ccc32)c1O (stereo not drawn)
> 10 µM: all assays above

Cc1coc2c1C(=O)C(=O)c1c-2ccc2c1CCCC2(C)C [Tanshinone IIA]
> 10 µM: all assays above

O=C(O)C[C@@]1(O)C[C@@H](CCCCCCc2ccc(Cl)cc2Cl)OC1=O
> 10 µM: all assays above

NCCCC(N)(C(=O)O)C(F)F (stereo not drawn) [Difluoromethylornithine]
> 10 µM: all assays above

NS(=O)(=O)c1ccc([N+](=O)[O-])cc1 [4-Nitrobenzenesulfonamide]
> 10 µM: all assays above
